From US9914760B2, “Methods of identifying, isolating and using odorant and aroma receptors” (Firmenich SA, priority 2013, dated 2018)

What was measured:
Olfr740 = assay: cell-based calcium-flux assay, HEK293T with Gα15; set-up: species or system mouse; details: dose-response curves FIG. 6D-J
Text: (§1) The activity of candidate human indole and skatole malodors receptors OR52N2 (SEQ ID NO: 11 and SEQ ID NO: 12), OR11G2 (SEQ ID NO: 13 and SEQ ID NO: 14, OR5AC2 (SEQ ID NO: 75 and SEQ ID NO: 76), OR4C15 (SEQ ID NO: 79 and SEQ ID NO: 80), OR8S1 (SEQ ID NO: 83 and SEQ ID NO: 84), OR11H6 (SEQ ID NO: 15 and SEQ ID NO: 16) and OR11H4 (SEQ ID NO: 49 and SEQ ID NO: 50) and candidate mouse indole and skatole malodors receptors Olfr665 (SEQ ID NO: 9 and SEQ ID NO 10) and Olfr740 (SEQ ID NO: 1 and SEQ ID NO 2) were confirmed in cell-based calcium-flux assays (FIGS. 6A to 6J). Cells stably co-expressing Rho-tagged human OR52N2 (FIG. 6A, B) or OR11G2 (FIG. 6C) and Gα15 (SEQ ID NO: 25) were exposed to increasing concentrations of skatole or indole. FIG. 6B is a repeat experiment showing similar activity of OR52N2 with indole and skatole. Odorant-induced OR52N2 or OR11G2 activity was detected by measuring the maximum Calcium 5 dye (Molecular Devices) fluorescence change following odorant exposure. Activity is defined as the baseline corrected Relative Fluorescent Units (RFU) ratios normalized to the highest RFU in the experiment in FIG. 6A. […] A cell line lacking a receptor, for example hOR52N2, was used as a control for non-specific activity at high concentrations (‘Indole control’ and ‘Skatole control’). The human receptor OR52N2 (SEQ ID NO: 11 and SEQ ID NO: 12) was identified because of its sequence similarity to mouse Olfr665 (SEQ ID NO: 10), an indole/skatole receptor isolated from olfactory neurons responding to both indole and skatole. The human receptor OR11G2 (SEQ ID NO: 13 and SEQ ID NO: 14) was identified because of its sequence similarity to mouse Olfr740 (SEQ ID NO: 2), an indole/skatole receptor isolated from olfactory neurons responding to both indole and skatole. The receptors were modified with the Rho sequence and stably expressed in HEK 293T cells. Further examples show indole and skatole dose-response curves for human receptors OR5AC2, OR4C15, OR8S1, OR11H6, OR11H4 and mouse receptors Olfr665 and Olfr740 (FIG. 6D-J). The human receptor OR5AC2 (SEQ ID NO: 75 and SEQ ID NO: 76) was identified because of its sequence similarity to mouse Olfr207 (SEQ ID NO: 78), a receptor isolated from olfactory neurons responding to both indole and skatole. The human receptor OR4C15 (SEQ ID NO: 79 and SEQ ID NO: 80) was identified because of its sequence similarity to mouse Olfr211 (SEQ ID NO: 82), a receptor isolated from olfactory neurons responding to both indole and skatole. The human receptor OR8S1 (SEQ ID NO: 83 and SEQ ID NO: 84) was identified because of its sequence similarity to mouse Olfr257 (SEQ ID NO: 86), a receptor isolated from olfactory neurons responding to both indole and skatole. […]

Olfr665 = assay: cell-based calcium-flux assay, HEK293T with Gα15; set-up: species or system mouse; details: dose-response curves FIG. 6D-J
Text: as §1

Olfr736 = assay: in vitro receptor response to indole or skatole; assay type: cell-based, mouse; details: likely lack of cell surface expression
Text: (§2) In another aspect, human receptor OR52N2 (SEQ ID NO: 11 and SEQ ID NO: 12) was identified because of its sequence similarity to mouse Olfr665 (SEQ ID NO: 9 and SEQ ID NO: 10), an indole/skatole receptor isolated from olfactory neurons responding to both indole and skatole (Example 6). Human receptor OR11G2 (SEQ ID NO: 13 and SEQ ID NO: 14) was identified because of its sequence similarity to mouse Olfr740 (SEQ ID NO: 1 and SEQ ID NO: 2), an indole/skatole receptor isolated from olfactory neurons responding to both indole and skatole (Example 6). Human receptor OR5AC2 (SEQ ID NO: 75 and SEQ ID NO: 76) was identified because of its sequence similarity to mouse Olfr207 (SEQ ID NO: 77 and SEQ ID NO: 78), an indole/skatole receptor isolated from olfactory neurons responding to both indole and skatole (Example 6). Human receptor OR4C15 (SEQ ID NO: 79 and SEQ ID NO: 80) was identified because of its sequence similarity to mouse Olfr1211 (SEQ ID NO: 81 and SEQ ID NO: 82), an indole/skatole receptor isolated from olfactory neurons responding to both indole and skatole (Example 6). Human receptor OR8S1 (SEQ ID NO: 83 and SEQ ID NO: 84) was identified because of its sequence similarity to mouse Olfr257 (SEQ ID NO: 85 and SEQ ID NO: 86), an indole/skatole receptor isolated from olfactory neurons responding to both indole and skatole (Example 6). Mouse receptor Olfr665 (SEQ ID NO: 9 and SEQ ID NO: 10) was identified directly from NGS data from isolated olfactory neurons responding to both indole and skatole (Example 6). Mouse receptor Olfr740 (SEQ ID NO: 1 and SEQ ID NO: 2) was identified directly from NGS data from isolated olfactory neurons responding to both indole and skatole (Example 6).

Olfr747 = assay: in vitro receptor response to indole or skatole; assay type: cell-based, mouse; details: despite proper cell surface expression (immunostaining)
Text: as §2

Olfr748 = assay: in vitro receptor response to indole or skatole; assay type: cell-based, mouse; details: despite proper cell surface expression (immunostaining)
Text: as §2

Row | SMILES | receptor activation in vitro (Olfr740) | receptor activation in vitro (Olfr665) | receptor response (Olfr736) | receptor response (Olfr747) | receptor response (Olfr748)
1 | c1ccc2[nH]ccc2c1 [indole] | activated | activated | failed to respond | failed to respond | failed to respond
2 | Cc1c[nH]c2ccccc12 [skatole, 3-methyl indole] | activated | activated | failed to respond | failed to respond | failed to respond
